Assay results reported in patent US20240217926A1, “1,6-NAPHTHALENEDITHIOL PRODUCT AND PROCESS FOR PRODUCING THE SAME” (SUGAI CHEMICAL INDUSTRY CO., LTD., priority 2022, published 2024).

Assays:
[1] = Heat stability by differential scanning calorimetry (DSC); format: physicochemical; details: heat stability data by DSC
Description: Specifically, 2,7-naphthalenedithiol (2,7-form) described in the Patent Document 1 has a melting point of 186 to 188° C., 2,6-naphthalenedithiol (2,6-form) has a melting point of 196 to 197° C., and 1,5-naphthalenedithiol (1,5-form) described in the Nonpatent Document 1 has a melting point of 120 to 121° C. Thus, these positional isomers of naphthalenedithiol each have a high melting point and are expected to show boiling point elevation due to hydrogen bonds of mercapto groups. […] Thus, it is technically difficult to adopt purification of these naphthalenedithiols by distillation at a relatively high temperature. For example, when 1,5-form, 2,6-form, and 2,7-form are tried to be distilled under vacuum, an outflow (or exit) line is to be maintained at a high temperature in order to prevent crystallization. However, such a high temperature of the outflow line causes not only easy re-evaporation of the naphthalenedithiols in the outflow line but also crystallization and clogging of the naphthalenedithiols in a subsequent line, thus making it impossible to operate the distillation.

[2] = Dissolubility (maximum dissolved concentration in organic solvents, by HPLC); format: physicochemical; details: 25° C.; for Dissolubility DMF: N,N-dimethylformamide; for Dissolubility PGMEA: propylene glycol monomethyl ether acetate; for Dissolubility THF: tetrahydrofuran
Description: In each of predetermined solvents described in the Table below, a sample was mixed at a temperature of 25° C., and the dissolubility of the sample was evaluated. In more detail, the sample was added to a predetermined amount of a solvent until the sample could not be dissolved, and the sample content of the liquid phase (the solvent phase) of the resulting mixture was analyzed using an HPLC (“SPD-20A” manufactured by SHIMADZU CORPORATION), and thus the concentration (the maximum dissolved concentration) of the sample in the liquid phase (the solvent phase) was determined as a solubility.

Row | temperature at which weight decreases by 5% or more [1] [°C] | Dissolubility DMF [2] [% by mass] | Dissolubility Ethyl acetate [2] [% by mass] | Dissolubility Methanol [2] [% by mass] | Dissolubility PGMEA [2] [% by mass] | Dissolubility THF [2] [% by mass] | Dissolubility Toluene [2] [% by mass] | SMILES
1 | 176 | 34.4 | 7.05 | 1.08 | 7.44 | 29.0 | 7.26 | Sc1cccc2c(S)cccc12 [Comparative Example 5, 1,5-naphthalenedithiol]
2 | 196 | 3.54 | 0.65 | 0.11 | 0.73 | 4.03 | 0.64 | Sc1ccc2cc(S)ccc2c1 [Comparative Example 6, 2,6-naphthalenedithiol]
3 | 188 | 7.75 | 0.90 | 0.16 | 1.05 | 5.24 | 0.76 | Sc1ccc2ccc(S)cc2c1 [Comparative Example 7, 2,7-naphthalenedithiol]
4 | – | – | – | 19.3 | – | – | – | Sc1ccc2c(S)cccc2c1 [Example 1, 1,6-naphthalenedithiol]
